Assay results: the NIST ThermoML archive (doi:10.1016/j.jct.2003.11.008)
Numbers after ± are expanded uncertainties.

Key:
[1] = xn = mol fraction of the nth substance listed; details: 318.15 K, 101.3 kPa, Liquid
[2] = excess molar enthalpy (molar enthalpy of mixing); xn = mol fraction of the nth substance listed; details: 318.15 K, 101.3 kPa, Liquid

## CCCCCCCCC [nonane] + CCOC(C)=O
[1]; x2 = 0.0916
  excess molar volume: 4.94e-07 ± 1.8e-08 m3/mol
[1]; x2 = 0.1769
  excess molar volume: 8.53e-07 ± 1.9e-08 m3/mol
[1]; x2 = 0.2442
  excess molar volume: 1.049e-06 ± 2e-08 m3/mol
[1]; x2 = 0.3108
  excess molar volume: 1.228e-06 ± 2.1e-08 m3/mol
[1]; x2 = 0.3462
  excess molar volume: 1.289e-06 ± 2.1e-08 m3/mol
[1]; x2 = 0.4363
  excess molar volume: 1.418e-06 ± 2.2e-08 m3/mol
[1]; x2 = 0.4938
  excess molar volume: 1.446e-06 ± 2.2e-08 m3/mol
[1]; x2 = 0.5469
  excess molar volume: 1.447e-06 ± 2.2e-08 m3/mol
[1]; x2 = 0.5934
  excess molar volume: 1.426e-06 ± 2.2e-08 m3/mol
[1]; x2 = 0.6418
  excess molar volume: 1.361e-06 ± 2.2e-08 m3/mol
[1]; x2 = 0.6869
  excess molar volume: 1.292e-06 ± 2.2e-08 m3/mol
[1]; x2 = 0.7308
  excess molar volume: 1.202e-06 ± 2.1e-08 m3/mol
[1]; x2 = 0.7614
  excess molar volume: 1.142e-06 ± 2.1e-08 m3/mol
[1]; x2 = 0.8417
  excess molar volume: 8.49e-07 ± 1.9e-08 m3/mol
[1]; x2 = 0.9044
  excess molar volume: 5.78e-07 ± 1.8e-08 m3/mol
[1]; x2 = 0.9558
  excess molar volume: 2.94e-07 ± 1.7e-08 m3/mol
[2]; x2 = 0.0596
  excess molar enthalpy: 0.0869 ± 0.00174 kcal/mol
[2]; x2 = 0.131
  excess molar enthalpy: 0.172 ± 0.00311 kcal/mol
[2]; x2 = 0.2117
  excess molar enthalpy: 0.253 ± 0.0043 kcal/mol
[2]; x2 = 0.295
  excess molar enthalpy: 0.316 ± 0.00526 kcal/mol
[2]; x2 = 0.3664
  excess molar enthalpy: 0.362 ± 0.00598 kcal/mol
[2]; x2 = 0.436
  excess molar enthalpy: 0.394 ± 0.00645 kcal/mol
[2]; x2 = 0.4899
  excess molar enthalpy: 0.406 ± 0.00669 kcal/mol
[2]; x2 = 0.5447
  excess molar enthalpy: 0.408 ± 0.00669 kcal/mol
[2]; x2 = 0.5881
  excess molar enthalpy: 0.399 ± 0.00645 kcal/mol
[2]; x2 = 0.6166
  excess molar enthalpy: 0.391 ± 0.00645 kcal/mol
[2]; x2 = 0.629
  excess molar enthalpy: 0.383 ± 0.00621 kcal/mol
[2]; x2 = 0.6629
  excess molar enthalpy: 0.373 ± 0.00621 kcal/mol
[2]; x2 = 0.7061
  excess molar enthalpy: 0.347 ± 0.00574 kcal/mol
[2]; x2 = 0.752
  excess molar enthalpy: 0.32 ± 0.00526 kcal/mol
[2]; x2 = 0.7991
  excess molar enthalpy: 0.277 ± 0.00454 kcal/mol
[2]; x2 = 0.8421
  excess molar enthalpy: 0.235 ± 0.00406 kcal/mol
[2]; x2 = 0.8875
  excess molar enthalpy: 0.177 ± 0.00311 kcal/mol
[2]; x2 = 0.9312
  excess molar enthalpy: 0.118 ± 0.00222 kcal/mol
[2]; x2 = 0.9672
  excess molar enthalpy: 0.0591 ± 0.00131 kcal/mol

## CCCCCCCCCCCCC [tridecane] + CCCCOC(C)=O
[1]; x2 = 0.1024
  excess molar volume: 3.78e-07 ± 1.7e-08 m3/mol
[1]; x2 = 0.1769
  excess molar volume: 5.73e-07 ± 1.8e-08 m3/mol
[1]; x2 = 0.2511
  excess molar volume: 7.35e-07 ± 1.9e-08 m3/mol
[1]; x2 = 0.3192
  excess molar volume: 8.56e-07 ± 1.9e-08 m3/mol
[1]; x2 = 0.3845
  excess molar volume: 9.36e-07 ± 2e-08 m3/mol
[1]; x2 = 0.4434
  excess molar volume: 9.93e-07 ± 2e-08 m3/mol
[1]; x2 = 0.5021
  excess molar volume: 1.014e-06 ± 2e-08 m3/mol
[1]; x2 = 0.5481
  excess molar volume: 1.023e-06 ± 2e-08 m3/mol
[1]; x2 = 0.6023
  excess molar volume: 1.006e-06 ± 2e-08 m3/mol
[1]; x2 = 0.6495
  excess molar volume: 9.59e-07 ± 2e-08 m3/mol
[1]; x2 = 0.6914
  excess molar volume: 9.14e-07 ± 2e-08 m3/mol
[1]; x2 = 0.7346
  excess molar volume: 8.49e-07 ± 1.9e-08 m3/mol
[1]; x2 = 0.7647
  excess molar volume: 7.97e-07 ± 1.9e-08 m3/mol
[1]; x2 = 0.8473
  excess molar volume: 5.94e-07 ± 1.8e-08 m3/mol
[1]; x2 = 0.9072
  excess molar volume: 3.95e-07 ± 1.7e-08 m3/mol
[1]; x2 = 0.9586
  excess molar volume: 1.65e-07 ± 1.6e-08 m3/mol
[2]; x2 = 0.0771
  excess molar enthalpy: 0.0913 ± 0.00179 kcal/mol
[2]; x2 = 0.166
  excess molar enthalpy: 0.17 ± 0.00311 kcal/mol
[2]; x2 = 0.2551
  excess molar enthalpy: 0.238 ± 0.00406 kcal/mol
[2]; x2 = 0.3371
  excess molar enthalpy: 0.286 ± 0.00478 kcal/mol
[2]; x2 = 0.405
  excess molar enthalpy: 0.312 ± 0.00526 kcal/mol
[2]; x2 = 0.4672
  excess molar enthalpy: 0.326 ± 0.0055 kcal/mol
[2]; x2 = 0.5179
  excess molar enthalpy: 0.329 ± 0.0055 kcal/mol
[2]; x2 = 0.5589
  excess molar enthalpy: 0.326 ± 0.0055 kcal/mol
[2]; x2 = 0.5984
  excess molar enthalpy: 0.32 ± 0.00526 kcal/mol
[2]; x2 = 0.6058
  excess molar enthalpy: 0.317 ± 0.00526 kcal/mol
[2]; x2 = 0.64
  excess molar enthalpy: 0.306 ± 0.00502 kcal/mol
[2]; x2 = 0.6863
  excess molar enthalpy: 0.286 ± 0.00478 kcal/mol
[2]; x2 = 0.7361
  excess molar enthalpy: 0.259 ± 0.0043 kcal/mol
[2]; x2 = 0.7879
  excess molar enthalpy: 0.224 ± 0.00382 kcal/mol
[2]; x2 = 0.8426
  excess molar enthalpy: 0.183 ± 0.00311 kcal/mol
[2]; x2 = 0.8971
  excess molar enthalpy: 0.13 ± 0.00239 kcal/mol
[2]; x2 = 0.9531
  excess molar enthalpy: 0.0683 ± 0.00143 kcal/mol

## CCCCCCCCCCCCC [tridecane] + CCOC(C)=O
[1]; x2 = 0.1246
  excess molar volume: 6.09e-07 ± 1.8e-08 m3/mol
[1]; x2 = 0.2249
  excess molar volume: 9.81e-07 ± 2e-08 m3/mol
[1]; x2 = 0.3076
  excess molar volume: 1.215e-06 ± 2.1e-08 m3/mol
[1]; x2 = 0.3854
  excess molar volume: 1.386e-06 ± 2.2e-08 m3/mol
[1]; x2 = 0.4562
  excess molar volume: 1.461e-06 ± 2.2e-08 m3/mol
[1]; x2 = 0.5148
  excess molar volume: 1.515e-06 ± 2.3e-08 m3/mol
[1]; x2 = 0.5732
  excess molar volume: 1.518e-06 ± 2.3e-08 m3/mol
[1]; x2 = 0.6235
  excess molar volume: 1.506e-06 ± 2.2e-08 m3/mol
[1]; x2 = 0.6695
  excess molar volume: 1.462e-06 ± 2.2e-08 m3/mol
[1]; x2 = 0.7136
  excess molar volume: 1.402e-06 ± 2.2e-08 m3/mol
[1]; x2 = 0.7509
  excess molar volume: 1.322e-06 ± 2.2e-08 m3/mol
[1]; x2 = 0.775
  excess molar volume: 1.255e-06 ± 2.1e-08 m3/mol
[1]; x2 = 0.8123
  excess molar volume: 1.128e-06 ± 2.1e-08 m3/mol
[1]; x2 = 0.881
  excess molar volume: 8.36e-07 ± 1.9e-08 m3/mol
[1]; x2 = 0.9317
  excess molar volume: 5.36e-07 ± 1.8e-08 m3/mol
[1]; x2 = 0.9691
  excess molar volume: 2.65e-07 ± 1.7e-08 m3/mol
[2]; x2 = 0.0838
  excess molar enthalpy: 0.122 ± 0.00227 kcal/mol
[2]; x2 = 0.1616
  excess molar enthalpy: 0.217 ± 0.00382 kcal/mol
[2]; x2 = 0.2388
  excess molar enthalpy: 0.302 ± 0.00502 kcal/mol
[2]; x2 = 0.3097
  excess molar enthalpy: 0.371 ± 0.00621 kcal/mol
[2]; x2 = 0.3743
  excess molar enthalpy: 0.42 ± 0.00693 kcal/mol
[2]; x2 = 0.4307
  excess molar enthalpy: 0.449 ± 0.00741 kcal/mol
[2]; x2 = 0.4842
  excess molar enthalpy: 0.467 ± 0.00765 kcal/mol
[2]; x2 = 0.532
  excess molar enthalpy: 0.478 ± 0.00789 kcal/mol
[2]; x2 = 0.5728
  excess molar enthalpy: 0.479 ± 0.00789 kcal/mol
[2]; x2 = 0.6188
  excess molar enthalpy: 0.474 ± 0.00765 kcal/mol
[2]; x2 = 0.6556
  excess molar enthalpy: 0.463 ± 0.00765 kcal/mol
[2]; x2 = 0.6946
  excess molar enthalpy: 0.449 ± 0.00741 kcal/mol
[2]; x2 = 0.7336
  excess molar enthalpy: 0.427 ± 0.00693 kcal/mol
[2]; x2 = 0.7755
  excess molar enthalpy: 0.396 ± 0.00645 kcal/mol
[2]; x2 = 0.8179
  excess molar enthalpy: 0.354 ± 0.00598 kcal/mol
[2]; x2 = 0.8605
  excess molar enthalpy: 0.3 ± 0.00502 kcal/mol
[2]; x2 = 0.9015
  excess molar enthalpy: 0.239 ± 0.00406 kcal/mol
[2]; x2 = 0.9432
  excess molar enthalpy: 0.161 ± 0.00287 kcal/mol
[2]; x2 = 0.9761
  excess molar enthalpy: 0.0749 ± 0.00163 kcal/mol

## CCCCOC(C)=O [butyl ethanoate] + CCCCCCCCC
[1]; x1 = 0.0761
  excess molar volume: 2.63e-07 ± 1.7e-08 m3/mol
[1]; x1 = 0.1325
  excess molar volume: 4.29e-07 ± 1.7e-08 m3/mol
[1]; x1 = 0.1914
  excess molar volume: 5.63e-07 ± 1.8e-08 m3/mol
[1]; x1 = 0.2533
  excess molar volume: 6.69e-07 ± 1.9e-08 m3/mol
[1]; x1 = 0.3151
  excess molar volume: 7.6e-07 ± 1.9e-08 m3/mol
[1]; x1 = 0.3713
  excess molar volume: 8.09e-07 ± 1.9e-08 m3/mol
[1]; x1 = 0.4229
  excess molar volume: 8.37e-07 ± 1.9e-08 m3/mol
[1]; x1 = 0.4749
  excess molar volume: 8.55e-07 ± 1.9e-08 m3/mol
[1]; x1 = 0.5222
  excess molar volume: 8.55e-07 ± 1.9e-08 m3/mol
[1]; x1 = 0.5765
  excess molar volume: 8.31e-07 ± 1.9e-08 m3/mol
[1]; x1 = 0.6275
  excess molar volume: 7.98e-07 ± 1.9e-08 m3/mol
[1]; x1 = 0.6744
  excess molar volume: 7.55e-07 ± 1.9e-08 m3/mol
[1]; x1 = 0.7062
  excess molar volume: 7.07e-07 ± 1.9e-08 m3/mol
[1]; x1 = 0.8023
  excess molar volume: 5.38e-07 ± 1.8e-08 m3/mol
[1]; x1 = 0.8838
  excess molar volume: 3.43e-07 ± 1.7e-08 m3/mol
[1]; x1 = 0.9444
  excess molar volume: 1.75e-07 ± 1.6e-08 m3/mol
[2]; x1 = 0.0779
  excess molar enthalpy: 0.0816 ± 0.00165 kcal/mol
[2]; x1 = 0.1485
  excess molar enthalpy: 0.146 ± 0.00263 kcal/mol
[2]; x1 = 0.2301
  excess molar enthalpy: 0.2 ± 0.00359 kcal/mol
[2]; x1 = 0.3059
  excess molar enthalpy: 0.237 ± 0.00406 kcal/mol
[2]; x1 = 0.3775
  excess molar enthalpy: 0.261 ± 0.0043 kcal/mol
[2]; x1 = 0.442
  excess molar enthalpy: 0.271 ± 0.00454 kcal/mol
[2]; x1 = 0.5
  excess molar enthalpy: 0.272 ± 0.00454 kcal/mol
[2]; x1 = 0.5519
  excess molar enthalpy: 0.266 ± 0.00454 kcal/mol
[2]; x1 = 0.5963
  excess molar enthalpy: 0.256 ± 0.0043 kcal/mol
[2]; x1 = 0.6435
  excess molar enthalpy: 0.243 ± 0.00406 kcal/mol
[2]; x1 = 0.6936
  excess molar enthalpy: 0.227 ± 0.00382 kcal/mol
[2]; x1 = 0.7461
  excess molar enthalpy: 0.203 ± 0.00359 kcal/mol
[2]; x1 = 0.8009
  excess molar enthalpy: 0.172 ± 0.00311 kcal/mol
[2]; x1 = 0.8533
  excess molar enthalpy: 0.134 ± 0.00239 kcal/mol
[2]; x1 = 0.9067
  excess molar enthalpy: 0.0904 ± 0.00177 kcal/mol
[2]; x1 = 0.9568
  excess molar enthalpy: 0.0449 ± 0.00108 kcal/mol
